The target in test [1] is TrufOBP4. The test can be described thus: Binding of fluorescent reporter 1-NPN (titration, Scatchard plot). Also on record: species or system Tirathaba rufivena. The following applies: 2 μM protein titrated with 2 to 20 μM 1-NPN; read-out: K1-NPN (dissociation constant of 1-NPN). Here is the method:
(§1) The binding ability of purified recombinant OBPs was evaluated with an F-7000 fluorescence spectrometer (Hitachi, Tokyo, Japan). The fluorescence spectra were recorded between 360 and 650 nm. N-Phenyl-1-naphthylamine (1-NPN) was selected as the fluorescent reporter and dissolved in chromatographic methanol at a concentration of 1 mM. The purified TrufOBP4 was dissolved in 50 mM Tris-HCl (pH 7.4) at a final concentration of 2 μM. The data for the 1-NPN-TrufOBP4 complex formation were obtained by titration of 2 μM protein with increasing concentrations (2 to 20 μM) of 1-NPN. The dissociation constant of 1-NPN (K1-NPN) was calculated using Prism 8 (GraphPad Software, San Diego, USA). To evaluate the binding ability of TrufOBP4 with volatiles, 1-NPN was replaced with different odor compounds from the TrufOBP4/1-NPN complex. The odor ligands were dissolved in chromatographic methanol at a concentration of 1 mM and added as aliquots to the protein solution. The spectral results were obtained, and the dissociation constants of the competitors were calculated with the formula: Ki = IC50/(1 + [1-NPN]/K1-NPN), where 1-NPN represents the free concentration of 1-NPN, and IC50 represents the ligand concentration displacing 50% of the fluorescent reporter.

Test [2] has as its target TrufOBP4. The test is described as follows: Fluorescence competitive binding assay (displacement of 1-NPN). Further details: species or system Tirathaba rufivena. Particulars: 2 μM protein, 50 mM Tris-HCl pH 7.4; for Ki: Ki = IC50/(1 + [1-NPN]/K1-NPN); for IC50: ligand concentration displacing 50% of 1-NPN. Here is the method:
as §1

A further test has as its system Holotrichia oblita. Also on record: method as in earlier work. Particulars: cited from earlier work.
Another test has as its system EoblGOBP2. Also on record: method as in PMID 29778539, PMID 29543772. Particulars: cited from earlier work.
A further test concerns Hyphantria cunea. Also on record: method as in PMID 32547409. The following applies: stimulation with the compound; cited from earlier work.
A further test concerns Rhyzopertha dominica. Further details: method as in earlier work. The following applies: cited from earlier work.
For another test, the system named is AipsGOBP2. Further details: method as in PMID 29778539, PMID 29543772. The following applies: cited from earlier work.
A further test has as its system Tribolium castaneum. Further details: method as in earlier work. The following applies: cited from earlier work.
The subject of another test is LsatOBP1. Further details: method as in PMID 11274212. Particulars: cited from earlier work.
The subject of the next test is PregOBP56a. Further details: method as in PMID 23326317. Particulars: cited from earlier work.
For a further test, the system named is MbraPBP1. Also on record: method as in PMID 11274212. Particulars: cited from earlier work.

The source of these data is publication PMC8779631, “Binding Properties of Odorant-Binding Protein 4 of Tirathaba rufivena to Areca catechu Volatiles” (Plants, 2022).

For `c1ccc(Nc2cccc3ccccc23)cc1` [1-NPN, N-Phenyl-1-naphthylamine], on TrufOBP4 [1], the Kd is 6.79 µM.

In the case of `CCCCC(CC)CO` (stereo not drawn) [2-Ethylhexanol], at TrufOBP4 [2], the Ki came out at 21 µM and the IC50 was determined as 24.1 µM.

For `CC1=CCC2C(C1)C2(C)C` (stereo not drawn) [3-Carene], at TrufOBP4 [2], the Ki worked out at 19.5 µM and the 50% inhibitory concentration (IC50) was determined as 22.4 µM.

In the case of `CCC=CCCOC(C)=O` [3-Hexenyl acetate], at TrufOBP4 [2], the Ki is 40.6 µM and the IC50 came to 46.6 µM.

Consider `CCC(C)C(=O)OCCC(C)C` (stereo not drawn) [3-Methylbutyl 2-methylbutanoate], for which, on TrufOBP4 [2], the Ki was 45.8 µM and the IC50 was > 50 µM.

Consider `C=C(C)[C@H]1CC=C(C)CC1` [(R)-(+)-limonene], for which, at TrufOBP4 [2], the Ki was 22.1 µM and the IC50 was 25.3 µM.

In the case of `C=C(C)[C@@H]1CC=C(C)CC1` [(S)-(−)-Limonene], on TrufOBP4 [2], the inhibition constant (Ki) was 29.1 µM and the IC50 was determined as 33.4 µM.

Regarding `C=C(C)[C@H]1CC=C(C)CC1` [Cinene], on TrufOBP4 [2], the Ki was > 50 µM and the IC50 was > 50 µM.

Consider `CC12CCC(CC1)C(C)(C)O2` [Cineole], for which, on TrufOBP4 [2], the Ki is > 50 µM and the IC50 was > 50 µM.

In the case of `CCCCOC(=O)c1ccccc1C(=O)OCCCC` [Dibutyl phthalate], the effect on behavior entry with Holotrichia oblita was “attractive effect”; with Rhyzopertha dominica, “repellent”; in the test with Tribolium castaneum, “repellent”. The binding affinity entry in the test on EoblGOBP2 and with AipsGOBP2 was “outstanding binding affinity” in each case. Moreover, in the test with Hyphantria cunea, the mating rates entry is “significantly increased”. Further, the Ki on TrufOBP4 [2] was 4.61 µM. In addition, at TrufOBP4 [2], the IC50 stood at 5.29 µM.

On to `CCCCCCOC(C)=O` [Hexyl acetate], for which, at TrufOBP4 [2], the Ki is > 50 µM and the IC50 was > 50 µM.

On to `CC(=O)OCCC(C)C` [Isoanyl acetate], for which, at TrufOBP4 [2], the Ki is 21 µM and the IC50 was determined as 24.1 µM.

Regarding `C=CC(C)(O)CCC=C(C)C` (stereo not drawn) [Linalol], on TrufOBP4 [2], the Ki was > 50 µM and the IC50 is > 50 µM.

Turning to `COC(=O)c1ccccc1O` [Methyl salicylate], at TrufOBP4 [2], the Ki was > 50 µM and the IC50 was > 50 µM.

`C=CC(=C)CCC=C(C)C` [Myrcene]: at TrufOBP4 [2], the Ki amounted to 17.3 µM and the IC50 came out at 19.8 µM.

On to `CCCCCCCCCCCCCC(=O)O` [Myristic acid], for which, on TrufOBP4 [2], the Ki came to 3.52 µM and the IC50 was determined as 4.04 µM.

As to `CCCCC(CC)COC(=O)C=Cc1ccc(OC)cc1` (stereo not drawn) [Octyl methoxycinnamate], at TrufOBP4 [2], the Ki turned out to be 1.16 µM and the IC50 is 1.33 µM.

Regarding `CCCCCCCCCCCCCCCC(=O)O` [Palmitic acid], the binding entry in the test with LsatOBP1 and with MbraPBP1 was “bind well” throughout. In addition, the binding affinity entry in the test with PregOBP56a was “high binding affinity”. For the same molecule, the Ki on TrufOBP4 [2] is 5.28 µM. The molecule further registered an IC50 on TrufOBP4 [2] of 6.06 µM.

As to `C=Cc1ccccc1` [Styrene], on TrufOBP4 [2], the Ki is 36.2 µM and the IC50 is 41.5 µM.

Turning to `CCCCC/C=C\C/C=C\CCCCCCCC(=O)O` [linoleic], in the test with PregOBP56a, the binding affinity entry is “high binding affinity”.

With `CCCCCCCC/C=C\CCCCCCCC(=O)O` [oleic], in the test on PregOBP56a, the binding affinity result is listed as “high binding affinity”.

In the case of `CCCCCCCCCCCCCCCCCC(=O)O` [stearic], in the test on PregOBP56a, the binding affinity result is reported as “high binding affinity”.

As to `C=C1CCC2CC1C2(C)C` (stereo not drawn) [β-Pinene], at TrufOBP4 [2], the Ki worked out at 29 µM and the IC50 came out at 33.3 µM.
